Target: KRas G12D/Q61H double mutant (Homo sapiens (Human), UniProt P01116, G12D/Q61H)
Test: Ras GTP binding domain inhibition assay (labeled GTP)
Conditions: 20 μM compound; KRas G12D/Q61H double mutant; read-out: % Inhibition at 20 μM of K-Ras mutant and wild-type protein, KRas G12D Q61H
Procedure: Buffer-I: • 50 mM Tris, pH 7.5 • 150 mM NaCl (optional) • 1 mM MgCl2 • 1 mM DTT. • KRas G12D mutant protein was expressed as a His-tagged protein. Purified His-KRas G12D protein was diluted in buffer-I to a final concentration of 3-10 μg/ml. • 200 μl of the diluted His-KRas G12D protein was added to a nickel coated 96 well plate and incubated overnight at 4° C. • The next day, wells were washed 3× in 200 μl of Buffer-I. • Then 200 μl of Buffer-I were added to each well in the presence of 1% DMSO. • Tested compounds were added to the protein-coated wells at a concentration of 20 μM, and incubated for 3 hours at room temperature. While performing IC50 measurements a serial dilution of all tested concentrations was prepared.
Then 22 μl of Cy3-GTP or Cy5-GTP was added to each well. The labeled GTP was incubated for 45 min. at room temperature. • Following GTP incubation, wells were washed 3× in Buffer-I, and 200 μl of Buffer-I were added to each well. • Following washes, the amount of bound labeled-GTP was measured with an Eppendorf AF2200 plate reader.
By substituting KRas G12D mutant protein with KRas G12C mutant, KRas wild type, KRas Q61H mutant, KRas G12D/Q61H double mutant or KRas G12C/Q61H double mutant under the assay conditions described above, KRas G12C mutant KRas wild type, KRas Q61H mutant, KRas G12D/Q61H double mutant and KRas G12C/Q61H double mutant inhibition, respectively, were each determined.

Sequence of KRas G12D/Q61H double mutant (P01116-2 other isoform, or with tags, fused parts or gaps G12D/Q61H): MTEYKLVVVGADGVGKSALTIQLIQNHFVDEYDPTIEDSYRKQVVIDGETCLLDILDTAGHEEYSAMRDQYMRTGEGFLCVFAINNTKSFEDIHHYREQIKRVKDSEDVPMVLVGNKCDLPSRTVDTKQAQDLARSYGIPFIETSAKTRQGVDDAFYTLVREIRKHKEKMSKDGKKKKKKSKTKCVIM

Row | SMILES | inhibition at 20 µM
1 | Cc1n[nH]c(C2CN(C(=O)c3cnc(C)s3)CCO2)n1 (stereo not shown) | 1 to 25%
2 | NC(=O)CCN1CCOC(c2nc(-c3ccccc3)cs2)C1 (stereo not shown) | 1 to 25%
3 | NC(=O)c1cc(-c2csc(N3CCCCC3)n2)ccc1O | 1 to 25%
4 | CC(CC(N)=O)Nc1cc(C(F)(F)F)nc(-c2ccccn2)n1 (stereo not shown) | 1 to 25%
5 | Cc1nc(CN(C)CC23CC4CC(CC(C4)C2)C3)oc1C | 1 to 25%
6 | CC(NC(=O)C1CSC(c2ccccc2)=N1)c1ccccn1 (stereo not shown) | 1 to 25%
7 | CCN(C(=O)c1cnn(-c2ccccc2)n1)c1ccccc1 | 1 to 25%
8 | Cc1nc2ccccc2n1CCNC(=O)c1cc(S(=O)(=O)N(C)C)ccc1N1CCOCC1 | 1 to 25%
9 | O=[N+]([O-])c1ccc(O)c2ncccc12 | 25 to 50%
10 | COC(=O)CCc1sc(NC2CCCCC2)nc1-c1ccc(OC)cc1 | 25 to 50%
11 | Cc1ccc2c(c1)C1CN(C)CCC1N2Sc1ccc(Cl)cc1 (stereo not shown) | 25 to 50%
12 | COc1ccc(-c2oc3ncn(CCCn4ccnc4)c(=N)c3c2-c2ccc(OC)cc2)cc1 | 25 to 50%
13 | Cc1ccc(OS(=O)(=O)NCCC(c2ccccc2)c2ccccc2)cc1 | 1 to 25%
14 | CC(=O)c1c(F)cccc1N1CCN(c2cccc(C(F)(F)F)c2)CC1 | 25 to 50%
15 | CN(Cc1ccccc1C#N)Cc1ccccc1N1CCCCC1 | 25 to 50%
16 | O=c1c(Cl)cc(C(F)(F)F)cn1Cc1csc(COc2ccc(Cl)cc2)n1 | 1 to 25%
17 | CCOC(=O)c1c(NC(=O)c2c(N)n(CCCOC)c3nc4ccccc4nc23)sc2c1CCCC2 | 1 to 25%
18 | CCOC(=O)c1ccc2c(c1)nc(C1CCN(S(=O)(=O)c3cccs3)CC1)n2CC | 25 to 50%
19 | Cc1c(C(=O)N(CCc2ccccc2)Cc2ccccc2)cccc1[N+](=O)[O-] | 25 to 50%
20 | C=CCOc1ccc(C(=O)c2ccccc2)c(OCC(=O)NC2(C#N)CCCC2)c1 | 25 to 50%
21 | COC(=O)c1ccc(CN2CCN(c3cccc(C(F)(F)F)c3)CC2)cc1 | 25 to 50%
22 | CCCCc1ccc([N+]2=C3SCCCN3CC2(O)c2ccc(C)cc2)cc1 (stereo not shown) | 25 to 50%
23 | CCOc1ccc(S(=O)(=O)N(CC(=O)N2CCCc3ccccc32)Cc2ccco2)cc1 | 25 to 50%

Row | SMILES | inhibition at 20 µM
24 | COC(=O)c1ccc(COC(=O)c2oc3ccccc3c2COC(C)C)o1 | 25 to 50%
25 | Cc1cc(C(=O)COC(=O)c2ccccc2[S+](C)[O-])c(C)n1CCC1=CCCCC1 (stereo not shown) | 1 to 25%
26 | Cc1ccc(CN(Cc2ccco2)C(=O)C(c2ccccc2)c2ccccc2)o1 | 25 to 50%
27 | CCOC(=O)c1c(-c2ccc(OC)cc2)oc2ccc(OCC=C(C)C)cc12 | 25 to 50%
28 | COc1ccc(CCN/C(=N/C(=O)Nc2ccccc2)Nc2nc(C)cc(C)n2)cc1OC | 25 to 50%
29 | CCCc1cc(=O)oc2cc(OCc3cc(C(=O)OC)c(C)o3)ccc12 | 25 to 50%
30 | COc1ccc(CN(C)C(=O)c2cc(Br)c(Br)s2)c(OC)c1 | 25 to 50%
31 | CC(C)(CNc1ccc(S(=O)(=O)N(Cc2ccccc2)Cc2ccccc2)cn1)N1CCOCC1 | 25 to 50%
32 | CCOc1ccc(Nc2ccc([N+](=O)[O-])cc2S(=O)(=O)N(CC)CC)cc1 | 25 to 50%
33 | C=CCN(Cc1ccc(Cl)s1)C(=O)COC(=O)c1cc(OC)ccc1O | 25 to 50%
34 | Cc1cc2oc(=O)cc(CN(C)Cc3c(C)nn(Cc4ccccc4Cl)c3C)c2cc1C | 25 to 50%
35 | COC(=O)C(NCc1ccc(-c2ccc(Cl)cc2)o1)c1ccccc1 (stereo not shown) | 25 to 50%
36 | COCCNc1ccc([N+](=O)[O-])cc1C(=O)OCCOc1ccccc1 | 25 to 50%
37 | CC(=O)c1ccccc1OCCN(c1nccs1)S(=O)(=O)c1ccccc1 | 25 to 50%
38 | O=C(NCC(F)(F)F)c1ccc(CN(Cc2cc(Cl)cc3c2OCCO3)C2CC2)cc1 | 25 to 50%
39 | O=C(c1ccc(-c2ccccc2F)o1)N(Cc1ccco1)C1CCCC1 | 51 to 75%
40 | COc1ccc(CN(C(C)C2CC2)S(=O)(=O)c2cccs2)cc1 (stereo not shown) | 25 to 50%
41 | CC1CCCN(c2nc(-c3ccc(O)cc3O)cs2)C1 (stereo not shown) | 25 to 50%
42 | CCN(C(=O)CCc1c(C)nc(-c2ccccn2)nc1O)C1CCCC1 | 51 to 75%
43 | COC(=O)c1c(CN(C)Cc2nccn2CC(F)(F)F)nc2ccccc2c1-c1ccccc1 | 25 to 50%
44 | CCc1nc2ccc(C(=O)Nc3ccccc3C(=O)N3CC(C)OC(C)C3)cc2nc1CC (stereo not shown) | 25 to 50%
45 | Cc1ccc(Sc2ccc(S(=O)(=O)NC3CCCC3)cc2)cc1C | 1 to 25%
46 | CCOc1ccccc1N1CC(c2nc3ccccc3n2CCC2CCCCC2)CC1=O (stereo not shown) | 25 to 50%

Row | SMILES | inhibition at 20 µM
47 | CCc1nc2ccccc2c(C(=O)OCC(=O)c2cc(C)n(CCOC)c2C)c1C | 1 to 25%
48 | CN(Cc1ccccc1N1CCOCC1)C(=O)c1ccc(OCc2ccccc2)cc1 | 1 to 25%
49 | CCc1oc2ccccc2c1CN(C)C(=O)c1cccc(OCc2c(C)noc2C)c1 | 25 to 50%
50 | C=CCn1c(C)cc(C(=O)CSc2nc3ccccc3c(=O)n2C(C)COC)c1C (stereo not shown) | 25 to 50%
51 | CCN(CC)S(=O)(=O)c1ccc(C(C)NCc2ccc(Cl)s2)cc1 (stereo not shown) | 25 to 50%
52 | CCCCN1CC(c2nc3ccccc3n2CCCCOc2c(C)cccc2C)CC1=O (stereo not shown) | 1 to 25%
53 | COc1cccc(CN(C)S(=O)(=O)N(C)Cc2ccc(F)cc2)c1 | 25 to 50%
54 | Cc1ccc(OCCn2c(CN3CCCCC3)nc3ccccc32)cc1C | 25 to 50%
55 | CCc1ccc(C(=O)c2cc3ccccc3o2)s1 | 25 to 50%
56 | Cc1cc(C)c(-c2csc(C3CC3)n2)cc1C | 25 to 50%
57 | Cc1ccc(C)c(-c2csc(C3CN(Cc4ccccc4)CCO3)n2)c1 (stereo not shown) | 25 to 50%
58 | COC(C)c1nc(CN(Cc2ccc(C#N)cc2)Cc2cccc(F)c2)cs1 (stereo not shown) | 25 to 50%
59 | CC[S+]([O-])c1ccccc1C(=O)OCc1ccc(-c2ccccc2C#N)cc1 (stereo not shown) | 25 to 50%
60 | Cc1cccc(-n2ccnc2SCCCc2nc(-c3cccs3)no2)c1 | 25 to 50%
61 | CCCOc1ccc2ccccc2c1CN(C)C(=O)C1CCCN(c2ncccn2)C1 (stereo not shown) | 25 to 50%
62 | CCc1ccccc1OCC(=O)N1N=C(c2ccccc2)CC1(O)C(F)(F)F (stereo not shown) | 25 to 50%
63 | CN(Cc1ccc(S(=O)(=O)N(C)C)o1)c1ccccc1-c1ccccc1 | 1 to 25%
64 | CC(C)(C)NS(=O)(=O)c1ccccc1CNC(=O)CCC1CCCCC1 | 25 to 50%
65 | CCOC(=O)c1ccc2c(c1)n(Cc1occc1C(=O)OC)c(=O)n2CC | 1 to 25%
66 | C=CCn1c(C)cc(C(=O)COC(=O)c2ccccc2Oc2ccccc2)c1C | 51 to 75%
67 | COc1ccc(-c2csc3nc(C)nc(N(C)Cc4ccco4)c23)cc1OC | 25 to 50%
68 | O=C(CCCOc1ccc(Cl)cc1Cl)N1N=CCC1(O)C(F)(F)F (stereo not shown) | 25 to 50%
69 | Cc1ccc(CC(C#N)c2c(C#N)c(N)nc(N3CCCCC3)c2C#N)cc1 (stereo not shown) | 1 to 25%

Row | SMILES | inhibition at 20 µM
70 | C=CCc1cc(OCC)ccc1OCC(=O)NCc1ccc(OC)cc1 | 25 to 50%
71 | CCN(CC(=O)Nc1ccccc1OC)Cc1coc(-c2ccc(C)cc2C)n1 | 25 to 50%
72 | O=C(c1ccc(CSc2nc3ccccc3[nH]2)cc1)N1N=CCC1(O)C(F)(F)F (stereo not shown) | 25 to 50%
73 | COc1ccc(N(CC(=O)N(c2ccccc2)C(C)C)S(=O)(=O)c2ccccc2C(F)(F)F)cc1 | 25 to 50%
74 | CCOc1ccc(Oc2ccc(C(F)(F)F)cc2NC(=O)CC(NC(C)=O)c2ccccc2)cc1 (stereo not shown) | 1 to 25%
75 | COc1ccc(C(C)=O)cc1CC(C(=O)c1ccc(C2CCCCC2)cc1)N(C)C (stereo not shown) | 25 to 50%
76 | CCOc1ccc(CN(C)CC(=O)Nc2ccc3c(c2)c2ccccc2n3CC)cc1OC | 25 to 50%
77 | COC(=O)c1ccc(Oc2ccc(S(=O)(=O)N3CCCCC3)cc2NCc2cc(C)on2)cc1 | 25 to 50%
78 | Cc1nc(Cc2nnc(SCc3ccc(-c4ccccc4C#N)cc3)o2)cs1 | 1 to 25%
79 | CCCN(CC1CC1)C(=O)COC(=O)c1c(C)nc(-c2cccs2)nc1SC | 1 to 25%
80 | COC(=O)c1sccc1S(=O)(=O)NCCCCCc1nc(-c2ccc(C)cc2)no1 | 25 to 50%
81 | CCC(C)c1ccc(S(=O)(=O)NC(c2ccccc2)c2ccccn2)cc1 (stereo not shown) | 25 to 50%
82 | O=c1c(Cc2cc(Cl)c3cccnc3c2O)c(O)oc2ccccc12 | 25 to 50%
83 | CC(C)(C)OC(=O)N1CCCN1c1nc(-c2cccs2)nc2ccccc12 | 25 to 50%
84 | CCc1cc(N2CC(Cc3cc(OC)cc(OC)c3)C2)nc(-c2ccncc2)n1 | 1 to 25%
85 | CC(C)(COc1ncccc1C(F)(F)F)Nc1nccc(C(F)(F)F)n1 | 25 to 50%
86 | OCCN(Cc1ccc(Cl)c(Cl)c1)c1ncc(Br)cn1 | 1 to 25%
87 | CCOC(=O)c1c(-c2ccc(Br)cc2)csc1/N=C/N(C)C | 25 to 50%
88 | COc1ccccc1CN(Cc1cccs1)C(=O)c1ccc(COC(C)C)cc1 | 25 to 50%
89 | COc1ccc(CCNc2nc(-c3cc(C)n(-c4ncn[nH]4)c3C)cs2)cc1OC | 25 to 50%
90 | O=c1[nH]c(CN(CCc2ccc(Cl)cc2)Cc2nc3ccsc3c(=O)[nH]2)nc2ccsc12 | 25 to 50%
91 | COc1cc(C(=O)NCC(c2cccs2)N(C)C)ccc1OCc1ccccc1Cl (stereo not shown) | 1 to 25%

Reference: patent US10940139B2, “Compounds that interact with the Ras superfamily for the treatment of cancers, inflammatory diseases, rasopathies, and fibrotic disease” (Shy Therapeutics LLC, priority 2017, dated 2021)
